Here are results for one compound from publication PMC2790557 (Biochemistry, 2009).

The structures appear in SMILES notation.

In this experiment the target is CK2 (casein kinase II).

`OC[C@H]1O[C@@H](n2cnc3cc(Cl)c(Cl)cc32)[C@H](O)[C@@H]1O` [DRB, 5,6-Dichloro-1-(β-D-ribofuranosyl)benzimidazole]: the IC50 (as a rule, the point on the concentration scale where inhibition reaches its midpoint) was ~10 µM.
